Data reported in ChEMBL document CHEMBL1149744, “Terpenoids and Alkaloids from Esenbeckia belizencis. Spontaneous Oxidation of Furoquinoline Alkaloids” (J Nat Prod, 1992).

System: Artemia salina
Assay: Toxicity against Artemia salina
Type: organism-based
Details: in vivo

SMILES	LC50 [ppm]
COc1cc2nc3occc3c(OC)c2cc1OC [KOKUSAGININE]	367
COc1c2ccoc2nc2c(OC)c3c(cc12)OCO3 [FLINDERSIAMINE]	> 1000
